# Experiments:
# human MR = target: T1, human MR (Homo sapiens, UniProt P08235); experiment: Mineralocorticoid Receptor Binding Assay ([3H]-aldosterone); details: [3H]-aldosterone binding, human MR expressed in Sf9 cells; read-out: MR Ki
# T1 construct: The full length human MR gene is cloned from a human kidney or human brain cDNA library; His tag from the pAcHLT vector (own knowledge); made in house; host or cells: Sf9 insect cells (baculovirus, pAcHLT transfer vector)
# T1 sequence (P08235 1-984): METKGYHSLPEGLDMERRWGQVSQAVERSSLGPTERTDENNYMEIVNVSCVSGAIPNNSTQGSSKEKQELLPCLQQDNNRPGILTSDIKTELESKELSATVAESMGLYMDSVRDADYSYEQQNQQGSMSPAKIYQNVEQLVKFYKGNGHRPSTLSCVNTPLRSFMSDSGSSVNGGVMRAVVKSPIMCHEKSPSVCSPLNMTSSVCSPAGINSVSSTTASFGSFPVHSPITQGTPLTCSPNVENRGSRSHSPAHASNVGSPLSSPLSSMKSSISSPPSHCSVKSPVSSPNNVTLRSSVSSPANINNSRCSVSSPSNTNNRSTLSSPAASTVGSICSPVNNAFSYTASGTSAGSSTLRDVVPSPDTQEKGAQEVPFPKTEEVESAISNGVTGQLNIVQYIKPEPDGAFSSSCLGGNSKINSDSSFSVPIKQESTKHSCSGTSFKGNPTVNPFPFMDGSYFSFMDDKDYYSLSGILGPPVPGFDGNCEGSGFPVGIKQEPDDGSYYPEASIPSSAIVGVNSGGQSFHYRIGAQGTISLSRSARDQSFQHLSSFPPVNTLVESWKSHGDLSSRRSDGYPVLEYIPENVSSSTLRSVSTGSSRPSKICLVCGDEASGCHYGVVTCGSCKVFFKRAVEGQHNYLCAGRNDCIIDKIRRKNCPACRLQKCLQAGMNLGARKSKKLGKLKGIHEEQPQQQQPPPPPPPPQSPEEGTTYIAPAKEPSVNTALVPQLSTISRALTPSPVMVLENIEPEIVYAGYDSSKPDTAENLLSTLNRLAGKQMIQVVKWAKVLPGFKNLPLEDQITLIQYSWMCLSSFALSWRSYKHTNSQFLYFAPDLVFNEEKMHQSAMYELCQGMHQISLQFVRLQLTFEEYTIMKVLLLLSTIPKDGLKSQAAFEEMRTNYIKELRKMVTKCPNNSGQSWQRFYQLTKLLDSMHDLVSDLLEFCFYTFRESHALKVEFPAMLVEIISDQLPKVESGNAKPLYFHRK
# How it was run: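 Lysate supernatant of Sf9 cells expressing full-length human MR (20-25 μg protein) was incubated with 0.5 nM [3H]-aldosterone and test compound in molybdate/Tris/phosphate/glycerol buffer, pH 7.5, ~16 h at 4 °C. Bound ligand was filtered and counted by scintillation; IC50 is the concentration halving [3H]-aldosterone binding.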
# glucocorticoid receptor = target: T2, glucocorticoid receptor (Homo sapiens, UniProt P04150); experiment: Glucocorticoid Receptor Binding Assay ([3H]-dexamethasone, A549 cell extract); details: [3H]-dexamethasone binding, read-out: GR Ki
# T2 construct: containing 50-200 ug of A549 cell extract and 1.86 nM [^3H]-dexamethasone; host or cells: A549 human lung epithelial cells (sonicated cell extract)
# T2 sequence (P04150 1-777): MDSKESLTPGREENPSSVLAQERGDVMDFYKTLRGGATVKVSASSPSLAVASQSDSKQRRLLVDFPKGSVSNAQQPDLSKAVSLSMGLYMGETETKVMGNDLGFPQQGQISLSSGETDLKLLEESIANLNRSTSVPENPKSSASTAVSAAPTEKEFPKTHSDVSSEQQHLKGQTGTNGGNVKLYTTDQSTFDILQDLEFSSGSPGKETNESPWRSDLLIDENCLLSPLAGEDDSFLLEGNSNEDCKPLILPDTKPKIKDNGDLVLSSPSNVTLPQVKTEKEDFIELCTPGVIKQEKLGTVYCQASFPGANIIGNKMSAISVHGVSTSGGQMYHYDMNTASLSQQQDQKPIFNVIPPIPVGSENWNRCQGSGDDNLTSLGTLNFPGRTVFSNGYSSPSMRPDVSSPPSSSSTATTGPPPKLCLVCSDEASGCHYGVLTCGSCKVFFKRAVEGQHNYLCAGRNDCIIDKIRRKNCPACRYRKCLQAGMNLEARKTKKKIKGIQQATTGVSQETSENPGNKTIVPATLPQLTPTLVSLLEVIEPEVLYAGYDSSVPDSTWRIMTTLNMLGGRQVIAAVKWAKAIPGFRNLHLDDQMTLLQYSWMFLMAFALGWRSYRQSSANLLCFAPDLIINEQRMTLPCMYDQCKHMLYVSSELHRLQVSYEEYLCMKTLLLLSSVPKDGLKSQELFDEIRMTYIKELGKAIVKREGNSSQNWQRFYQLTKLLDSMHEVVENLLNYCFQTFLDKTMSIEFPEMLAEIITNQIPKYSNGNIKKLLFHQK
# How it was run: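 A549 cell extract (50–200 ug) incubated with 1.86 nM [3H]-dexamethasone and test compound for 16 h at 4 °C in Tris-HCl pH 7.2 buffer with glycerol and molybdate. Unbound radioligand removed by dextran-coated charcoal, then supernatant bound counts measured by scintillation.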
Structure (SMILES),Ki (human MR) [nM],Ki (glucocorticoid receptor) [nM]
CS(=O)(=O)Nc1cccc(/C=C2\c3ccccc3CCc3cc(C(N)=O)ccc32)c1 [Example 416],< 500,< 500
Cc1cccc2c1SCc1ccccc1C2=Cc1cccc(NS(C)(=O)=O)c1 [Example 695],< 500,< 500
"COc1cccc2c1OCc1ccccc1/C2=C\c1cccc(NS(C)(=O)=O)c1 [Example 271, N-[3-(4-Methoxy-6H-dibenzo[b,e]oxepin-11-ylidenemethyl)-phenyl]-methanesulfonamide]",< 500,< 500
"NC(=O)Nc1ccc(C=C2c3ccccc3CCc3ccccc32)cc1 [Example 129, [4-(10,11-Dihydro-dibenzo[a,d]cyclohepten-5-ylidenemethyl)-phenyl]-urea]",< 500,< 500
CS(=O)(=O)Nc1cccc(/C=C2\c3ccc(Cl)cc3CCc3sccc32)c1 [Example 496],< 500,< 500
Fc1ccc2c(c1)CCc1ncccc1/C2=C\c1ccccc1F [Example 582],< 500,< 10000
C/C(=C1/c2ccccc2CCc2cc(Cl)ccc21)c1cccc(NS(C)(=O)=O)c1 [Example 794],< 500,< 500
"Oc1cccc(C=C2c3ccccc3CCc3ccccc32)c1 [Example 57, 3-(10,11-Dihydro-dibenzo[a,d]cyclohepten-5-ylidenemethyl)-phenol]",< 500,< 500
CCC(=C1c2ccc(C)cc2CCc2cc(F)ccc21)c1cccc(NS(C)(=O)=O)c1 [Example 833],< 500,< 500
COc1ccc2c(c1OC)CSc1ccccc1/C2=C/c1cccc(NS(=O)(=O)c2ccccc2)c1 [Example 738],< 500,< 500
CS(=O)(=O)Nc1cccc(C=C2c3ccccc3CCc3ccc(S(C)(=O)=O)cc32)c1 [Example 321],< 500,< 500
COc1ccc2c(c1OC)CSc1ccccc1/C2=C/c1cccc(NS(C)(=O)=O)c1 [Example 684],< 500,< 500
CC/C(=C1/c2ccc(OC)cc2COc2cc(F)ccc21)c1cccc(NS(C)(=O)=O)c1 [Example 823],< 500,< 500
O=c1[nH]c2cc(/C=C3\c4ccc(F)cc4CCc4ncccc43)ccc2s1 [Example 536],< 500,< 500
CS(=O)(=O)Nc1cccc(/C=C2\c3cc(Cl)ccc3COc3ccccc32)c1 [Example 727],< 500,< 500
"C(=C1c2ccccc2CCc2ccccc21)c1cccc(-c2ccn[nH]2)c1 [Example 229, 5-[3-(10,11-Dihydro-dibenzo[a,d]cyclohepten-5-ylidenemethyl)-phenyl]-1H-pyrazole]",< 500,< 1000
"CS(=O)(=O)Nc1cccc(C=C2c3ccccc3CCc3c(F)cccc32)c1 [184(a), N-[3-(1-Fluoro-10,11-dihydro-dibenzo[a,d]cyclohepten-5-ylidenemethyl)-phenyl]-methanesulfonamide]",< 500,< 500
"Oc1cccc(CC2c3ccccc3CCc3c(F)cccc32)c1 (stereo not drawn) [Example 186, 3-(1-Fluoro-10,11-dihydro-5H-dibenzo[a,d]cyclohepten-5-ylmethyl)-phenol]",< 500,< 500
Fc1cccc(/C=C2\c3ccc(F)cc3CCc3ncccc32)c1 [Example 579],< 500,< 500

# Results, then the molecule that gave them:
Ki (human MR) [nM],Ki (glucocorticoid receptor) [nM],Structure (SMILES)
< 500,< 500,"COc1ccc2c(c1)CCc1cc(OC)ccc1C2=Cc1cccc(O)c1 [Example 193, 3-(2,8-Dimethoxy-10,11-dihydro-dibenzo[a,d]cyclohepten-5-ylidenemethyl)-phenol]"
< 500,< 500,CCC/C(=C1/c2ccccc2COc2ccccc21)c1cccc(NS(C)(=O)=O)c1 [Example 802]
< 500,< 500,CS(=O)(=O)Nc1cc(F)cc(/C=C2\c3ccc(Cl)cc3COc3ccccc32)c1 [Example 623]
< 500,< 500,CC(=O)Nc1cccc2c1CCc1ccccc1C2=Cc1cccc(NS(C)(=O)=O)c1 [Example 406]
< 500,< 500,CS(=O)(=O)Nc1cccc(/C=C2/c3ccccc3COc3cc(Cl)ccc32)c1 [Example 664]
< 500,< 10000,COC(=O)c1ccc(/C=C2/c3ccc(F)cc3CCc3ncccc32)cc1 [Example 587]
< 500,< 1000,"N#Cc1ccc(C=C2c3ccccc3CCc3ccccc32)cc1 [Example 82, 4-(10,11-Dihydro-dibenzo[a,d]cyclohepten-5-ylidenemethyl)-benzonitrile]"
< 500,< 500,CS(=O)(=O)Nc1cccc(/C=C2\c3ccccc3COc3cc(C(F)(F)F)ccc32)c1 [Example 683]
< 500,< 500,Cc1ccc2c(c1)CCc1ccccc1/C2=C\c1cccc(NS(C)(=O)=O)c1 [Example 327]
< 500,< 500,"Oc1cccc(C=C2c3ccccc3CCc3ccc(F)cc32)c1 (mixture of isomers) [Example 215, 3-(3-Fluoro-10,11-dihydro-dibenzo[a,d]cyclohepten-5-ylidenemethyl)-phenol]"
< 500,< 500,"Oc1cccc(C=C2c3ccccc3CCc3cc(Cl)ccc32)c1 [181(a), 3-(2-Chloro-10,11-dihydro-dibenzo[a,d]cyclohepten-5-ylidenemethyl)-phenol]"
< 500,< 500,O=c1[nH]c2cc(/C=C3/c4ccccc4CCc4c(Cl)cccc43)ccc2o1 [Example 221(a)]
< 500,< 500,Fc1cccc2c1CCc1ncccc1C2=Cc1cccc(Cl)c1 [Example 575]
< 500,< 500,Cc1cccc2c1CCc1ccccc1/C2=C\c1cccc(NS(C)(=O)=O)c1 [Example 312]
< 500,< 500,C/C(=C1/c2ccccc2COc2cc(F)ccc21)c1ccc2[nH]c(=O)[nH]c2c1 [Example 838]
< 500,< 500,COC(=O)c1ccccc1/C=C1\c2ccc(F)cc2CCc2ncccc21 [Example 588]
< 500,< 500,Oc1cccc(/C=C2/c3ccccc3COc3cc(F)ccc32)c1 [Example 627]
< 500,< 10000,CS(=O)(=O)Nc1cccc(C=C2c3ccc(Cl)cc3CSc3cc(Cl)ccc32)c1 [Example 702]
< 500,< 500,CS(=O)(=O)Nc1cccc(/C=C2\c3cc(F)ccc3COc3ccccc32)c1 [Example 730]
< 500,< 1000,"C(=C1c2ccccc2CCc2ccccc21)c1ccc2cc[nH]c2c1 [Example 219, 6-(10,11-Dihydro-dibenzo[a,d]cyclohepten-5-ylidenemethyl)-1H-indole]"

# — patent US20060063759A1, “Tricyclic steroid hormone nuclear receptor modulators” (priority 2002, published 2006)
